Data as given in patent US20080102039A1, “Betamethasone spray” (priority 2006, published 2008).

Tests used:
[1] = Preparation of Formulation 1: dissolution of BMV in dimethyl isosorbide and visual check for precipitation; type: physicochemical; conditions: Formulation 1 preparation
Procedure: • 1) Into vessel 1 was added the dimethyl isosorbide to which was slowly sprinkled the BMV. This was left mixing until visually dissolved. • 2) To vessel 1 was added the propylene glycol with stirring until homogenous. • 3) In vessel 2 was added the required amount of water and polysorbate 80. This was stirred until dissolved and homogenous. • 4) The 3Na.citrate.2H2O, anhyd. citric acid, imidazolidinyl urea and SDS were then added to vessel 2 and stirred until completely dissolved. • 5) The contents of vessel 2 were then poured into vessel 1 and stirred until homogenous.
A 1.1 kg batch of the 0.12% w/w Betamethasone valerate foam formulation above was then made up for a 3-month accelerated stability study using the same method: (Table 2)

[2] = Microscope examination of drops for crystals (Leica DM LB, drop taken every 5 mins); type: physicochemical
Procedure: The DMI phase was made up for a total solution volume of 500 g so 0.600 g (actual weight) of betamethasone valerate was dissolved in 25.009 g of Arlasolve DMI. The rate of addition was 0.600 g added over 30 secs that is at a rate of 0.02 g/sec. The solution was then mixed at speed setting 1 on the Bibby magnetic stirrer. 1 drop of the solution was then taken every 5 mins. and examined under the Leica DM LB microscope with a 5× lens and L plan 10× eyepiece. A 100×1 mm^2 graticule was placed over the sample. The temperatures before and after addition of DMI were also recorded.
Whilst stirring the BMV/DMI solution at speed 1 on the Bibby magnetic stirrer, the propylene glycol (50.008 g) was poured in over approx. 12 secs, at a rate of 4.17 g/sec. 1 drop of the solution was then taken every 5 mins. and examined under a Leica DM LB microscope with a 5× lens and L plan 10× eyepiece. […] The temperatures before and after addition of propylene glycol were also recorded.
15.120 g of the active phase was added to 84.880 g of the aqueous phase over 10 secs (Total vol.=100.000 g), at a rate of 1.51 g/sec. […] The temperatures before and after addition of the active phase were also recorded. […]
84.882 g of the aqueous phase were added to 15.129 g of the active phase over 10 secs (Total vol.=100.011 g). […] The temperatures before and after addition of the aqueous phase were also recorded. […]

[3] = cited from earlier work

Which “dissolution of BMV into dimethyl isosorbide” value [1] does the source give for `CCCCC(=O)O[C@]1(C(=O)CO)[C@@H](C)C[C@H]2[C@@H]3CCC4=CC(=O)C=C[C@]4(C)[C@@]3(F)[C@@H](O)C[C@@]21C` [Betamethasone valerate] here?
The value was “successfully dissolved”.

And the “time to fully dissolve into the dimethyl isosorbide” value ([2]; 0.600 g in 25.009 g Arlasolve DMI, stirrer speed 1)?
The value was “at least 30 minutes”.

What about the “effect of addition of propylene glycol on precipitating the betamethasone valerate” value ([2]; propylene glycol 50.008 g poured into BMV/DMI solution) of the same compound?
Its value is “no effect”.

What about the solubility in water [3] of the same compound?
The solubility in water was “practically insoluble”.
